From patent publication US20250282799A1, “SUBSTITUTED PYRIDO[4,3-d]PYRIMIDINES AS KRAS MODULATORS” (Alterome Therapeutics, Inc., priority 2023, published 2025)
pIC50: −log10 of the molar value.

Test system: KRAS G12V dependent lung adenocarcinoma cell line, NCI-H441
Assay: Cellular pERK (Thr202/Tyr204) FRET/HTRF assay
Assay type: cell-based
Settings: Homo sapiens, NCI-H441, cellular pERK (Thr202/Tyr204) HTRF, NCI-H441 cells
How it was run: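 NCI-H441, overnight plating → cpd 1 hr, 37 °C/5% CO2; DMSO neg ctrl. Lyse (phosphatase inhibitors), add donor/acceptor Abs, RT incubation, HTRF read. IC50 by curve fit.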

pIC50 | Compound
> 7.30 | [2H]C([2H])(F)Oc1c(F)cc(F)c2cc(N)cc(-c3ncc4c(N5CCCC[C@H]6[C@H](F)[C@H]65)nc(OC([2H])([2H])[C@@]56CCCN5C[C@H](F)C6)nc4c3F)c12 [Example 173, 6,8-difluoro-4-(8-fluoro-4-((1S,7R,8S)-8-fluoro-2-azabicyclo[5.1.0]octan-2-yl)-2-(((2R,7aS)-2-fluorotetrahydro-1H-pyrrolizin-7a(5H)-yl)methoxy-d2)pyrido[4,3-d]pyrimidin-7-yl)-5-(fluoromethoxy-d2)naphthalen-2-amine]
> 7.30 | [2H]C([2H])(Oc1nc(N2CC=CC[C@H]3[C@H](F)[C@H]32)c2cnc(-c3cc(N)cc4ccc(F)c(C#C)c34)c(F)c2n1)[C@@]12CCCN1C[C@H](F)C2 [Example 174, 5-Ethynyl-6-fluoro-4-(8-fluoro-4-((1S,7R,8S)-8-fluoro-2-azabicyclo[5.1.0]oct-4-en-2-yl)-2-(((2R,7aS)-2-fluorotetrahydro-1H-pyrrolizin-7a(5H)-yl)methoxy-d2)pyrido[4,3-d]pyrimidin-7-yl)naphthalen-2-amine]
6.30 to 7.30 | [2H]C([2H])(Oc1nc(N2CCOC[C@H]3[C@H](F)[C@H]32)c2cc(F)c(-c3nc(N)cc(C)c3C(F)(F)F)c(F)c2n1)[C@@]12CCCN1C[C@H](F)C2 [Example 175, 6-(6,8-difluoro-4-((1S,7S,8S)-8-fluoro-5-oxa-2-azabicyclo[5.1.0]octan-2-yl)-2-(((2R,7aS)-2-fluorotetrahydro-1H-pyrrolizin-7a(5H)-yl)methoxy-d2)quinazolin-7-yl)-4-methyl-5-(trifluoromethyl)pyridin-2-amine]
5.00 to 6.30 | [2H]C([2H])(Oc1nc(N2CCOC[C@@H]3[C@@H](F)[C@@H]32)c2cc(F)c(-c3nc(N)cc(C)c3C(F)(F)F)c(F)c2n1)[C@@]12CCCN1C[C@H](F)C2 [Example 176, 6-(6,8-difluoro-4-((1R,7R,8R)-8-fluoro-5-oxa-2-azabicyclo[5.1.0]octan-2-yl)-2-(((2R,7aS)-2-fluorotetrahydro-1H-pyrrolizin-7a(5H)-yl)methoxy-d2)quinazolin-7-yl)-4-methyl-5-(trifluoromethyl)pyridin-2-amine]
> 7.30 | [2H]C([2H])(Oc1nc(N2CCOC[C@H]3[C@H](F)[C@H]32)c2cc(F)c(-c3cc(N)c(F)c(C)c3C(F)(F)F)c(F)c2n1)[C@@]12CCCN1C[C@H](F)C2 [Example 177, 5-(6,8-difluoro-4-((1S,7S,8S)-8-fluoro-5-oxa-2-azabicyclo[5.1.0]octan-2-yl)-2-(((2R,7aS)-2-fluorotetrahydro-1H-pyrrolizin-7a(5H)-yl)methoxy-d2)quinazolin-7-yl)-2-fluoro-3-methyl-4-(trifluoromethyl)aniline]
5.00 to 6.30 | [2H]C([2H])(Oc1nc(N2CCOC[C@@H]3[C@@H](F)[C@@H]32)c2cc(F)c(-c3cc(N)c(F)c(C)c3C(F)(F)F)c(F)c2n1)[C@@]12CCCN1C[C@H](F)C2 [Example 178, 5-(6,8-difluoro-4-((1R,7R,8R)-8-fluoro-5-oxa-2-azabicyclo[5.1.0]octan-2-yl)-2-(((2R,7aS)-2-fluorotetrahydro-1H-pyrrolizin-7a(5H)-yl)methoxy-d2)quinazolin-7-yl)-2-fluoro-3-methyl-4-(trifluoromethyl)aniline]
5.00 to 6.30 | [2H]C([2H])(Oc1nc(N2CCOC[C@H]3[C@H](F)[C@H]32)c2cc(Cl)c(-c3cc(N)cc(C)c3C(F)(F)F)c(F)c2n1)[C@@]12CCCN1C[C@H](F)C2 [Example 179, 3-(6-chloro-8-fluoro-4-((1S,7S,8S)-8-fluoro-5-oxa-2-azabicyclo[5.1.0]octan-2-yl)-2-(((2R,7aS)-2-fluorotetrahydro-1H-pyrrolizin-7a(5H)-yl)methoxy-d2)quinazolin-7-yl)-5-methyl-4-(trifluoromethyl)aniline]
5.00 to 6.30 | [2H]C([2H])(Oc1nc(N2CCOC[C@H]3[C@H](F)[C@H]32)c2ccc(-c3cc(N)cc(C)c3C(F)(F)F)c(F)c2n1)[C@@]12CCCN1C[C@H](F)C2 [Example 180, 3-(8-fluoro-4-((1S,7S,8S)-8-fluoro-5-oxa-2-azabicyclo[5.1.0]octan-2-yl)-2-(((2R,7aS)-2-fluorotetrahydro-1H-pyrrolizin-7a(5H)-yl)methoxy-d2)quinazolin-7-yl)-5-methyl-4-(trifluoromethyl)aniline]
5.00 to 6.30 | [2H]C([2H])(Oc1nc(N2CCOC[C@@H]3[C@@H](F)[C@@H]32)c2cc(Cl)c(-c3cc(N)cc(C)c3C(F)(F)F)c(F)c2n1)[C@@]12CCCN1C[C@H](F)C2 [Example 181, 3-(6-chloro-8-fluoro-4-((1R,7R,8R)-8-fluoro-5-oxa-2-azabicyclo[5.1.0]octan-2-yl)-2-(((2R,7aS)-2-fluorotetrahydro-1H-pyrrolizin-7a(5H)-yl)methoxy-d2)quinazolin-7-yl)-5-methyl-4-(trifluoromethyl)aniline]
5.00 to 6.30 | [2H]C([2H])(Oc1nc(N2CCOC[C@@H]3[C@@H](F)[C@@H]32)c2ccc(-c3cc(N)cc(C)c3C(F)(F)F)c(F)c2n1)[C@@]12CCCN1C[C@H](F)C2 [Example 182, 3-(8-fluoro-4-((1R,7R,8R)-8-fluoro-5-oxa-2-azabicyclo[5.1.0]octan-2-yl)-2-(((2R,7aS)-2-fluorotetrahydro-1H-pyrrolizin-7a(5H)-yl)methoxy-d2)quinazolin-7-yl)-5-methyl-4-(trifluoromethyl)aniline]
5.00 to 6.30 | [2H]C([2H])(Oc1nc(N2CCOC[C@H]3[C@H](F)[C@H]32)c2cc(Cl)c(-c3cc(N)cc(C4CC4)c3C(F)(F)F)c(F)c2n1)[C@@]12CCCN1C[C@H](F)C2 [Example 183, 3-(6-chloro-8-fluoro-4-((1S,7S,8S)-8-fluoro-5-oxa-2-azabicyclo[5.1.0]octan-2-yl)-2-(((2R,7aS)-2-fluorotetrahydro-1H-pyrrolizin-7a(5H)-yl)methoxy-d2)quinazolin-7-yl)-5-cyclopropyl-4-(trifluoromethyl)aniline]
5.00 to 6.30 | [2H]C([2H])(Oc1nc(N2CCOC[C@@H]3[C@@H](F)[C@@H]32)c2cc(Cl)c(-c3cc(N)cc(C4CC4)c3C(F)(F)F)c(F)c2n1)[C@@]12CCCN1C[C@H](F)C2 [Example 184, 3-(6-chloro-8-fluoro-4-((1R,7R,8R)-8-fluoro-5-oxa-2-azabicyclo[5.1.0]octan-2-yl)-2-(((2R,7aS)-2-fluorotetrahydro-1H-pyrrolizin-7a(5H)-yl)methoxy-d2)quinazolin-7-yl)-5-cyclopropyl-4-(trifluoromethyl)aniline]
> 7.30 | [2H]C([2H])(Oc1nc(N2CCOC[C@@H]3[C@H]2[C@@]3([2H])F)c2cnc(-c3cc(N)cc4ccc(F)c(C#C)c34)c(F)c2n1)[C@@]12CCCN1C[C@H](F)C2 [Example 185, 5-ethynyl-6-fluoro-4-(8-fluoro-4-((1S,7S,8S)-8-fluoro-5-oxa-2-azabicyclo[5.1.0]octan-2-yl-8-d)-2-(((2R,7aS)-2-fluorotetrahydro-1H-pyrrolizin-7a(5H)-yl)methoxy-d2)pyrido[4,3-d]pyrimidin-7-yl)naphthalen-2-amine]
6.30 to 7.30 | [2H]C([2H])(Oc1nc(N2CCOC[C@H]3[C@H](F)[C@H]32)c2cnc(-c3nc(N)cc(C)c3C(F)(F)F)c(F)c2n1)[C@@]12CCCN1C[C@H](F)C2 [Example 186, 6-(8-fluoro-4-((1S,7S,8S)-8-fluoro-5-oxa-2-azabicyclo[5.1.0]octan-2-yl)-2-(((2R,7aS)-2-fluorotetrahydro-1H-pyrrolizin-7a(5H)-yl)methoxy-d2)pyrido[4,3-d]pyrimidin-7-yl)-4-methyl-5-(trifluoromethyl)pyridin-2-amine]
> 7.30 | C#Cc1c(F)ccc2cc(N)cc(-c3ncc4c(N5CCOC[C@H]6[C@H](F)[C@H]65)nc(OC[C@@]56CCCN5CC5(CC5)C6)nc4c3F)c12 [Example 187, 4-(2-(((S)-dihydro-1′H,3′H-spiro[cyclopropane-1,2′-pyrrolizin]-7a′(5′H)-yl)methoxy)-8-fluoro-4-((1S,7S,8S)-8-fluoro-5-oxa-2-azabicyclo[5.1.0]octan-2-yl)pyrido[4,3-d]pyrimidin-7-yl)-5-ethynyl-6-fluoronaphthalen-2-amine]
> 7.30 | [2H]C([2H])(F)Oc1c(F)ccc2cc(N)cc(-c3ncc4c(N5CCOC[C@H]6[C@H](F)[C@H]65)nc(OC[C@@]56CCCN5C/C(=C\F)C6)nc4c3F)c12 [Example 188, 6-Fluoro-4-(8-fluoro-4-((1S,7S,8S)-8-fluoro-5-oxa-2-azabicyclo[5.1.0]octan-2-yl)-2-(((S,Z)-2-(fluoromethylene)tetrahydro-1H-pyrrolizin-7a(5H)-yl)methoxy)pyrido[4,3-d]pyrimidin-7-yl)-5-(fluoromethoxy-d2)naphthalen-2-amine]
> 7.30 | [2H]C([2H])(F)Oc1c(F)ccc2cc(N)cc(-c3ncc4c(N5CCOC[C@H]6[C@H](F)[C@H]65)nc(OC[C@@]56CCCN5CC(=C)C6)nc4c3F)c12 [Example 189, 6-fluoro-4-(8-fluoro-4-((1S,7S,8S)-8-fluoro-5-oxa-2-azabicyclo[5.1.0]octan-2-yl)-2-(((S)-2-methylenetetrahydro-1H-pyrrolizin-7a(5H)-yl)methoxy)pyrido[4,3-d]pyrimidin-7-yl)-5-(fluoromethoxy-d2)naphthalen-2-amine]
6.30 to 7.30 | [2H]C([2H])(Oc1nc(N2CCOC[C@H]3[C@H](F)[C@H]32)c2cc(Cl)c(-c3cc(N)c(F)c(C)c3C(F)(F)F)c(F)c2n1)[C@@]12CCCN1C[C@H](F)C2 [Example 190, 5-(6-chloro-8-fluoro-4-((1S,7S,8S)-8-fluoro-5-oxa-2-azabicyclo[5.1.0]octan-2-yl)-2-(((2R,7aS)-2-fluorotetrahydro-1H-pyrrolizin-7a(5H)-yl)methoxy-d2)quinazolin-7-yl)-2-fluoro-3-methyl-4-(trifluoromethyl)aniline]
